System: MMXF L-363
Experiment: Cytotoxicity, propidium iodide based monolayer assay, MMXF L-363
Type: cell-based
Details: Homo sapiens, 96 h; MMXF L-363 (multiple myeloma), four days of treatment, T/C=50%; read-out: Absolute IC50
Method: The cytotoxicity was tested for compounds of the invention on five different cell-lines, namely LXFL 1121, MAXF 401, MMXF L-636, PRXF PC-3M and UXF 1138 which are respectively lung large cell carcinoma, breast adeno carcinoma, multiple myeloma, prostate adeno carcinoma and uterine sarcoma.
A working stock solution of the test compounds was prepared in DMSO at a concentration of 33 mM or 8.25 mM, and small aliquots were stored at −20° C. On each day of an experiment, a frozen aliquot of the working stock solution was thawed and stored at room temperature prior to and during treatment.
All liquid handling steps were performed using the Tecan Freedom EVO 200 platform. First, serial 2-fold dilutions of the 33 mM DMSO working stock solution were done in DMSO. […]
A modified propidium iodide (PI) based monolayer assay was used to assess the anti-cancer activity of the compounds. Briefly, cells were harvested from exponential phase cultures, counted and plated in 96 well flat-bottom microtiter plates at a cell density of 4,000 to 40,000 cells/well dependent on the cell line's growth rate. […] After an incubation period of 1-2 hours at room temperature, fluorescence (FU) was measured using the Enspire Multimode Plate Reader (excitation λ=530 nm, emission λ=620 nm) to quantify the amount of attached viable cells. […]

For `O=C(Nc1scc(C2CCc3ccccc3C2)c1C(=O)O)c1ccccc1` (stereo not shown) [#16], the IC50 was 0.357 µM.

— patent US11767316B2, “Non-fused thiophene derivatives and their uses” (ENYO PHARMA, priority 2018, dated 2023)
